Experimental data as given in paper PMC4013589, “LXXLL Peptide Converts Transportan 10 to a Potent Inducer of Apoptosis in Breast Cancer Cells” (International Journal of Molecular Sciences, 2014).
“Also recorded” adds a separate entry of the source. Where no end group is shown, it is not given here.

How the values were obtained:
[1] = test system: MCF-7 breast cancer cells; assay: WST-1 viability assay, MCF-7 cells; type: cell-based, human; conditions: WST-1, 5 μM peptide, treated every 24 h, day 3, 1% FBS without insulin; triplicate
Procedure: (§1) Figure 1. Effects of SRC-1 bioportides on cancer and primary fibroblast cells. (A) Viability of MCF-7 cells; (B) Viability of FB188 cells. Cells were seeded in 96-well plates at a density of 3000 or 2000 cells/well, respectively, and treated after every 24 h with the indicated peptide concentrations. Viability of both cell types was monitored at day 3 via the WST-1 assay. The values shown represent the mean values of one experiment, carried out in triplicate (mean ± SD). In total, three independent experiments were performed.
(§2) Cytotoxicity of peptides was measured via the WST-1 conversion assay (Roche, Mannheim, Germany). FB188 and MCF-7 cells were seeded in 96-well plates at a density of 2000 or 3000 cells/well, respectively, and allowed to adhere overnight. Subsequently the cells were pre-incubated for two days in medium containing 1% FBS without supplementary insulin and exposed to the indicated concentrations of the respective peptide for up to 3 days. WST-1 conversion was determined by colorimetric analysis at 450 nm. Briefly, WST-1 reagent (1/10 of sample volume) was added directly to the growth medium and incubated at 37 °C for 4 h. The absorbance was determined using a microplate reader (Molecular Devices, Sunnyvale, CA, USA) at 450 nm. Untreated cells were designated a cell survival value of 100%.

[2] = test system: human primary fibroblasts (FB188 cells); assay: WST-1 viability assay, primary fibroblasts (FB188); type: cell-based
Procedure: as §1, §2

[3] = test system: HeLa cervical cancer cells; assay: Toxicity to HeLa cells; type: cell-based, human; conditions: for Toxicity to HeLa cells: data not shown, concentration not given
MCF-7 cells [4] = type: cell-based, human; conditions: for Effect on survival of MCF-7 cells: propidium iodide viability assay, 5 μM every 24 h for 4 days, 1% FBS without insulin
Procedure: (§3) Figure 3. Inhibition of cell viability by SRC-1 bioportides and their influence on ERα-mediated gene transactivation. (A) MCF-7 cells; (B) MDA-MB-231 cells. Cells were seeded in 24-well plates at low density and were treated every 24 h for 4 days with 5 μM peptide. Cell proliferation was measured after 1, 3, and 4 days of peptide treatment via a propidium iodide viability assay. […] MCF-7 cells were cultured with 5 μM of the indicated peptides and analyzed on day 2 of treatment. The fold change is the value compared with untreated cells. The values shown represent the mean values of one representative experiment, carried out in triplicate (mean ± SD). In total, three independent experiments were performed.
(§4) Cells were plated at low density in 24-well plates in standard growth medium, as described above. Before peptide treatment, MCF-7 cell growth was impeded by growing cells in 1% FBS containing medium without addition of insulin. At the day of treatment, peptides were added to the growth medium containing 1% FBS to the indicated final concentration. The procedure was repeated every 24 h for 4 days; samples were drawn after 1, 3, and 4 days of treatment and analyzed by cell counting using the propidium iodide viability assay (Nucleocounter, ChemoMetec, Allerød, Denmark) according to manufacturer’s instructions.

MDA-MB-231 cells = type: cell-based, human; conditions: for Effect on survival of MDA-MB-231 cells: propidium iodide viability assay, 5 μM every 24 h for 4 days, 1% FBS
Procedure: as §3, §4

pS2 mRNA in MCF-7 cells = assay: Quantitative RT-PCR of ERα target gene pS2, MCF-7; type: cell-based, human; conditions: MCF-7, 5 μM peptide, day 2, qRT-PCR relative to GAPDH, versus untreated cells
Procedure: as §3
(§5) For quantitative RT-PCR (qPCR) analysis, MCF-7 cells were treated as described above for the proliferation assay. On day 2, cells were lysed and total RNA was extracted using a commercial RNAqueous Kit (Ambion, Austin, TX, USA). Genomic DNA was removed with DNase I treatment (Ambion) according to the supplier’s protocol. RNA was reverse-transcribed using SuperScript III Reverse Transcriptase (Invitrogen, Carlsbad, CA, USA). Subsequently, qPCR was performed using Platinum SYBR Green (Invitrogen) according to the manufacturer’s protocol. […]

CTSD mRNA in MCF-7 cells = assay: Quantitative RT-PCR of ERα target gene CTSD, MCF-7; type: cell-based, human; conditions: MCF-7, 5 μM peptide, day 2, qRT-PCR; similar to TP10 or TP10-SRC1_1222–1245 treated cells
Procedure: as §3, §5

BCL2 mRNA in MCF-7 cells = assay: Quantitative RT-PCR of ERα target gene BCL2, MCF-7; type: cell-based, human; conditions: MCF-7, 5 μM peptide, day 2, qRT-PCR; similar to TP10 or TP10-SRC1_1222–1245 treated cells
Procedure: as §3, §5

MCF-7 cells [5] = assay: Annexin V / 7-AAD flow cytometric detection of apoptosis; type: cell-based, human; conditions: MCF-7, 5 μM peptide, 24 h, 1% FBS without insulin, flow cytometry
Procedure: Figure 4. Flow cytometric detection of apoptosis by annexin V and 7-amino-actinomycin D (7-AAD) staining. (A) Representative dot plots of 7-AAD versus annexin-V-PE. MCF-7 cells were left untreated (control) or were treated with 5 μM of peptide for 24 h in media supplemented with 1% serum. The lower left quadrant contains the vital (double negative) population; the lower right contains the apoptotic (annexin V^+/7-AAD^−) population; the upper right contains the late apoptotic/necrotic (annexin V^+/7-AAD^+) population; and the upper left contains the pre-necrotic (annexin V^−/7-AAD^+) population; (B) Average percentage of apoptotic and late apoptotic/necrotic cells counted from dot plots taken from one representative experiment, error bars indicate mean ± SD. Data are statistically significant with * p < 0.05, ** p < 0.01. In total, three independent experiments were performed.
Annexin V staining was measured using the PE-annexin-V Apoptosis Detection Kit I (BD Biosciences, San Diego, CA, USA). MCF-7 cells (3 × 10^5) were treated for 24 h with 5 μM peptide in growth medium supplemented with 1% FBS and without insulin. […] Following the addition of 0.4 mL of 1× Binding Buffer, fluorescence of annexin V and 7-AAD was detected in the FL-2 and FL-3 channels, respectively, within 1 h using a FACS Calibur flowcytometer (BD Biosciences, Sparks, MD, USA). […]

Substance	Effect on viability of MCF-7 cells [1]	Toxicity to HeLa cells [3]	Effect on survival of MCF-7 cells (MCF-7 cells [4])	Effect on survival of MDA-MB-231 cells (MDA-MB-231 cells)	pS2 mRNA levels (pS2 mRNA in MCF-7 cells)	other results
NLS-RRRRRRR [R7, hepta-arginine cell-penetrating peptide with SV40 NLS, control, reference compound]	did not have any effect	–	–	–	–	Effect on viability of human primary fibroblasts ([2]; WST-1, 5 μM peptide, treated every 24 h, day 3, 1% FBS, triplicate): did not have any effect
NLS-RRRRRRR-PQMQQNVFQYPGAGMVPQGEANF [R7-SRC1_1222–1245, randomly chosen non-structured fragment of SRC-1 with N-terminal R7; negative control]	–	not toxic	did not affect survival	did not affect survival	–	–
NLS-RRRRRRR-YSQTSHKLVQLLTTAEQQ [R7-SRC1LXXLL]	–	not toxic	did not affect survival	did not affect survival	–	–
PKKKRKVAGYLLGKINLKALAALAKKILYSQTSHKLVQLLTTAEQQ [TP10-SRC1LXXLL]	significantly more toxic; also recorded: highly cytotoxic	–	significant cytotoxic effects	–	No down-regulation	Concentration affecting the viability of primary fibroblasts ([2]; WST-1, day 3): ≥ 4 µM; Cytotoxicity to HeLa cells ([3]; 5 μM): highly cytotoxic; Cells killed (MCF-7 cells [4]; MCF-7, 5 μM every 24 h, day 3, propidium iodide assay): 50%; Number of viable cells (MCF-7 cells [4]; MCF-7, 5 μM every 24 h, day 4, propidium iodide assay): less than 1%; Cells killed (MDA-MB-231 cells; MDA-MB-231, 5 μM every 24 h, day 3, propidium iodide assay): 99%; Number of viable cells (MDA-MB-231 cells; MDA-MB-231, 5 μM every 24 h, day 4, propidium iodide assay): less than 1%; CTSD mRNA expression (CTSD mRNA in MCF-7 cells): slightly elevated; BCL2 mRNA expression (BCL2 mRNA in MCF-7 cells): slightly elevated; Annexin V and 7-AAD double-stained (late apoptotic/necrotic) cells (MCF-7 cells [5]): smaller population of cells that stained for both 7-AAD and annexin V; Annexin V (+)/7-AAD (−) stained (early apoptotic) cells (MCF-7 cells [5]; compared with untreated cells): predominant population of annexin V positive and 7-AAD negative cells
TP10 [reference compound]	did not have any effect	–	–	–	No down-regulation	–
